Where a SMILES comes first, the peptide text is derived from it. Bridges are numbered along the chain shown (N, C = ends).
Assays:
S. simulans 22 = test: MIC assays under standard conditions; format: cell-based, Staphylococcus simulans; conditions: Supplementary Table 1; cation-adjusted MHB, 37 °C, 16–20 h
Method: (§1) Plectasin and analogues were serially diluted in cation-adjusted Mueller–Hinton broth (MHB) in round-bottom polypropylene 96-well plates (50 µl per well). Selected bacterial strains were grown from glycerol stocks on blood agar plates. Individual colonies were inoculated in TSB and incubated at 37 °C while shaking until OD600 reached 0.5. Bacterial suspensions were then diluted 100 times in cation-adjusted MHB and distributed (50 μl per well) over the microplate containing the diluted plectasin solutions. Plates were covered by a gas-permeable adhesive membrane and incubated at 37 °C while shaking. MICs were determined by visual inspection after 16–20 h (Staphylococcus) or 20–24 h (Streptococcus). For Streptococcus strains, the broth was additionally supplemented with 5% lysed horse blood, and the microplates were incubated under 5% CO2 atmosphere. In the assays, we used the following strains: S. simulans, S. pneumoniae serotype 8, S. pneumoniae ATCC6305 and Streptococcus pyogenes M3.

[1] = Isothermal titration calorimetry with lipid II LUVs; format: binding; conditions: mutant vs plectasin
Method: About 200 nm large unilamellar vesicles (LUVs) were prepared from 2 mol% lipid II in DOPC by the extrusion technique. ITC measurements were conducted on a low-volume Affinity ITC (TA instruments). All measurements were conducted at 37 °C. Samples were degassed for 10 min before the ITC experiments. The cell was filled with plectasin (in 50 mM HEPES, 150 mM NaCl at pH = 7.2) and titrated with LUVs in the same buffer under constant stirring at 125 r.p.m. The data were analysed using the Nano Analyze software version 3.11.0 (TA Instruments). After baseline correction, the integrated peaks were fitted using an independent binding model. Each measurement was acquired in duplicate.

[2] = Confocal microscopy of GUVs doped with Und-NBD-lipid II; conditions: GUVs 0.4 mol% Und-NBD-LII in DOPC, 1 μM antibiotic
Method: GUVs were prepared by electroformation using in-house build Teflon cells with two titanium wires as electrodes. About 1 μl of 0.5 mM DOPC with 0.4 mol% NBD–lipid II in 2:1 CHCl3/MeOH was brushed on both electrodes and thoroughly dried under vacuum. Next, the cell was filled with 350 μl 300 mM sucrose, and GUVs were formed by applying an oscillating voltage (sine wave, 2 V, 10 Hz) for 90 min and released from the electrodes (square wave, 2 V, 2 Hz). Microscopy slides were precoated using a 1 mg ml^−1 BSA solution. Slides were filled with 300 μl 300 mM glucose solution, followed by addition of the antibiotic and finally 30–50 μl GUV solution. The GUVs were imaged using a Zeiss LSM 880 confocal microscope with a ×63/1.2NA glycerol objective lens. Green fluorescence (530–545 nm) was detected after excitation with a 488 nm laser.

S. pneumoniae ATCC6305 = test: MIC assays under standard conditions; format: cell-based, Streptococcus pneumoniae; conditions: Supplementary Table 1; cation-adjusted MHB + 5% lysed horse blood, 5% CO2, 20–24 h
Method: as §1

| Molecule | Minimum inhibitory concentration, S. simulans (S. simulans 22) | loss in lipid II binding affinity (ITC) [1] | lipid II cluster/domain formation on GUVs [2] | Minimum inhibitory concentration, S. pneumoniae ATCC6305 (S. pneumoniae ATCC6305) |
| --- | --- | --- | --- | --- |
| CC[C@H](C)[C@@H]1NC(=O)[C@H](CO)NC(=O)[C@H](CCCCN)NC(=O)[C@@H]2CSSC[C@@H](C(=O)N[C@@H](Cc3ccc(O)cc3)C(=O)O)NC(=O)[C@H](CCCCN)NC(=O)[C@@H]3CSSC[C@H](NC(=O)[C@H](CCC(N)=O)NC(=O)[C@H](CCSC)NC(=O)[C@H](CC(=O)O)NC(=O)[C@H](CC(=O)O)NC(=O)[C@H](CCC(=O)O)NC(=O)[C@H](CC(=O)O)NC(=O)[C@H](Cc4c[nH]c5ccccc45)NC(=O)[C@@H]4CCCN4C(=O)CNC(=O)[C@H](CC(N)=O)NC(=O)[C@@H](NC(=O)CNC(=O)[C@H](Cc4ccccc4)NC(=O)CN)CSSC[C@H](NC(=O)[C@H](Cc4ccc(O)cc4)NC(=O)CNC(=O)CNC(=O)[C@H](CCCCN)NC(=O)[C@H](Cc4ccc(O)cc4)NC(=O)CNC(=O)[C@H](CCCCN)NC1=O)C(=O)N[C@@H](C)C(=O)N[C@@H](CCCCN)C(=O)NCC(=O)NCC(=O)N[C@@H](Cc1ccccc1)C(=O)N[C@@H](C(C)C)C(=O)N3)C(=O)N[C@@H](Cc1c[nH]cn1)C(=O)N[C@@H](CC(N)=O)C(=O)N[C@@H](C)C(=O)N2 [H18A] (H-GFGCNGPWDEDDMQCHNACKSIKGYKGGYCAKGGFVCKCY-OH; disulfide 4-30, 15-37, 19-39 (inferred); N-terminus and C-terminus assumed) | > 50 µg/mL | > 10 fold | – | – |
| teicoplanin | – | – | caused the formation of lipid II domains in liposomes | – |
| copsin | – | – | caused the formation of lipid II domains in liposomes | – |
| CC[C@H](C)[C@@H]1NC(=O)[C@H](CO)NC(=O)[C@H](CCCCN)NC(=O)[C@@H]2CSSC[C@@H](C(=O)N[C@@H](Cc3ccc(O)cc3)C(=O)O)NC(=O)[C@H](CCCCN)NC(=O)[C@@H]3CSSC[C@H](NC(=O)[C@H](CCC(N)=O)NC(=O)[C@H](CCSC)NC(=O)[C@H](CC(=O)O)NC(=O)[C@H](CC(=O)O)NC(=O)[C@H](CCC(=O)O)NC(=O)[C@H](CC(=O)O)NC(=O)[C@H](Cc4c[nH]c5ccccc45)NC(=O)[C@@H]4CCCN4C(=O)CNC(=O)[C@H](CC(N)=O)NC(=O)[C@@H](NC(=O)CNC(=O)[C@H](Cc4ccccc4)NC(=O)CN)CSSC[C@H](NC(=O)[C@H](Cc4ccc(O)cc4)NC(=O)CNC(=O)CNC(=O)[C@H](CCCNC(=N)N)NC(=O)[C@H](Cc4ccc(O)cc4)NC(=O)CNC(=O)[C@H](CCCCN)NC1=O)C(=O)N[C@@H](C)C(=O)N[C@@H](CCCCN)C(=O)NCC(=O)NCC(=O)N[C@@H](Cc1ccccc1)C(=O)N[C@@H](C(C)C)C(=O)N3)C(=O)N[C@@H](Cc1c[nH]cn1)C(=O)N[C@@H](CC(N)=O)C(=O)N[C@@H](Cc1c[nH]cn1)C(=O)N2 [K26R] (H-GFGCNGPWDEDDMQCHNHCKSIKGYRGGYCAKGGFVCKCY-OH; disulfide 4-30, 15-37, 19-39 (inferred); N-terminus and C-terminus assumed) | ≤ 0.78 µg/mL | – | – | 1,56 μg/mL |
| CC[C@H](C)[C@@H]1NC(=O)[C@H](CO)NC(=O)[C@H](CCCCN)NC(=O)[C@@H]2CSSC[C@@H](C(=O)N[C@@H](Cc3ccccc3)C(=O)O)NC(=O)[C@H](CCCCN)NC(=O)[C@@H]3CSSC[C@H](NC(=O)[C@H](CCC(N)=O)NC(=O)[C@H](CCSC)NC(=O)[C@H](CC(=O)O)NC(=O)[C@H](CC(=O)O)NC(=O)[C@H](CCC(=O)O)NC(=O)[C@H](CC(=O)O)NC(=O)[C@H](Cc4c[nH]c5ccccc45)NC(=O)[C@@H]4CCCN4C(=O)CNC(=O)[C@H](CC(N)=O)NC(=O)[C@@H](NC(=O)CNC(=O)[C@H](Cc4ccccc4)NC(=O)CN)CSSC[C@H](NC(=O)[C@H](Cc4ccc(O)cc4)NC(=O)CNC(=O)CNC(=O)[C@H](CCCCN)NC(=O)[C@H](Cc4ccc(O)cc4)NC(=O)CNC(=O)[C@H](CCCCN)NC1=O)C(=O)N[C@@H](C)C(=O)N[C@@H](CCCCN)C(=O)NCC(=O)NCC(=O)N[C@@H](Cc1ccccc1)C(=O)N[C@@H](C(C)C)C(=O)N3)C(=O)N[C@@H](Cc1c[nH]cn1)C(=O)N[C@@H](CC(N)=O)C(=O)N[C@@H](Cc1c[nH]cn1)C(=O)N2 [Y40F] (H-GFGCNGPWDEDDMQCHNHCKSIKGYKGGYCAKGGFVCKCF-OH; disulfide 4-30, 15-37, 19-39 (inferred); N-terminus and C-terminus assumed) | 1,56 μg/mL | – | – | 0,78 μg/mL |
| CC[C@H](C)[C@@H]1NC(=O)[C@H](CO)NC(=O)[C@H](CCCCN)NC(=O)[C@@H]2CSSC[C@@H](C(=O)N[C@@H](Cc3ccc(O)cc3)C(=O)O)NC(=O)[C@H](CCCCN)NC(=O)[C@@H]3CSSC[C@H](NC(=O)[C@H](CCC(N)=O)NC(=O)[C@H](CCSC)NC(=O)[C@H](CC(=O)O)NC(=O)[C@H](CC(=O)O)NC(=O)[C@H](CCC(=O)O)NC(=O)[C@H](CC(=O)O)NC(=O)[C@H](Cc4c[nH]c5ccccc45)NC(=O)[C@@H]4CCCN4C(=O)CNC(=O)[C@H](CC(N)=O)NC(=O)[C@@H](NC(=O)CNC(=O)[C@H](Cc4ccccc4)NC(=O)CN)CSSC[C@H](NC(=O)[C@H](CCCNC(=N)N)NC(=O)CNC(=O)CNC(=O)[C@H](CCCCN)NC(=O)[C@H](Cc4ccc(O)cc4)NC(=O)CNC(=O)[C@H](CCCCN)NC1=O)C(=O)N[C@@H](C)C(=O)N[C@@H](CCCCN)C(=O)NCC(=O)NCC(=O)N[C@@H](Cc1ccccc1)C(=O)N[C@@H](C(C)C)C(=O)N3)C(=O)N[C@@H](Cc1c[nH]cn1)C(=O)N[C@@H](CC(N)=O)C(=O)N[C@@H](Cc1c[nH]cn1)C(=O)N2 [Y29R] (H-GFGCNGPWDEDDMQCHNHCKSIKGYKGGRCAKGGFVCKCY-OH; disulfide 4-30, 15-37, 19-39 (inferred); N-terminus and C-terminus assumed) | 1,56 μg/mL | – | – | 1,56 μg/mL |
| CSCC[C@@H]1NC(=O)[C@H](CC(=O)O)NC(=O)[C@H](CC(=O)O)NC(=O)[C@H](CCC(=O)O)NC(=O)[C@H](CC(=O)O)NC(=O)[C@H](Cc2c[nH]c3ccccc23)NC(=O)[C@@H]2CCCN2C(=O)CNC(=O)[C@H](CC(N)=O)NC(=O)[C@@H](NC(=O)CNC(=O)[C@H](Cc2ccccc2)NC(=O)CN)CSSC[C@@H]2NC(=O)[C@H](Cc3ccc(O)cc3)NC(=O)CNC(=O)CNC(=O)[C@H](CCCCN)NC(=O)[C@H](Cc3ccc(O)cc3)NC(=O)CNC(=O)[C@H](CCCCN)NC(=O)[C@H](CCCCN)NC(=O)[C@H](CO)NC(=O)[C@H](CCCCN)NC(=O)[C@@H]3CSSC[C@@H](C(=O)N[C@@H](Cc4ccc(O)cc4)C(=O)O)NC(=O)[C@H](CCCCN)NC(=O)[C@H](CSSC[C@H](NC(=O)[C@H](CCC(N)=O)NC1=O)C(=O)N[C@@H](Cc1c[nH]cn1)C(=O)N[C@@H](CC(N)=O)C(=O)N[C@@H](Cc1c[nH]cn1)C(=O)N3)NC(=O)[C@H](C(C)C)NC(=O)[C@H](Cc1ccccc1)NC(=O)CNC(=O)CNC(=O)[C@H](CCCCN)NC(=O)[C@H](C)NC2=O [I22K] (H-GFGCNGPWDEDDMQCHNHCKSKKGYKGGYCAKGGFVCKCY-OH; disulfide 4-30, 15-37, 19-39 (inferred); N-terminus and C-terminus assumed) | > 50 µg/mL | – | – | > 50 µg/mL |
| CC[C@H](C)[C@@H]1NC(=O)[C@H](CO)NC(=O)[C@H](CCCCN)NC(=O)[C@@H]2CSSC[C@@H](C(=O)N[C@@H](Cc3ccc(O)cc3)C(=O)O)NC(=O)[C@H](CCCCN)NC(=O)[C@@H]3CSSC[C@H](NC(=O)[C@H](CCC(N)=O)NC(=O)[C@H](CCSC)NC(=O)[C@H](CC(=O)O)NC(=O)[C@H](CC(=O)O)NC(=O)[C@H](CCC(=O)O)NC(=O)[C@H](CC(=O)O)NC(=O)[C@H](Cc4c[nH]c5ccccc45)NC(=O)[C@@H]4CCCN4C(=O)CNC(=O)[C@H](CC(N)=O)NC(=O)[C@@H](NC(=O)CNC(=O)[C@H](Cc4ccccc4)NC(=O)CN)CSSC[C@H](NC(=O)[C@H](Cc4ccc(O)cc4)NC(=O)CNC(=O)CNC(=O)[C@H](CCCCN)NC(=O)[C@H](Cc4ccccc4)NC(=O)CNC(=O)[C@H](CCCCN)NC1=O)C(=O)N[C@@H](C)C(=O)N[C@@H](CCCCN)C(=O)NCC(=O)NCC(=O)N[C@@H](Cc1ccccc1)C(=O)N[C@@H](C(C)C)C(=O)N3)C(=O)N[C@@H](Cc1c[nH]cn1)C(=O)N[C@@H](CC(N)=O)C(=O)N[C@@H](Cc1c[nH]cn1)C(=O)N2 [Y25F] (H-GFGCNGPWDEDDMQCHNHCKSIKGFKGGYCAKGGFVCKCY-OH; disulfide 4-30, 15-37, 19-39 (inferred); N-terminus and C-terminus assumed) | 1,56 μg/mL | – | – | 3,125 μg/mL |
| ramoplanin | – | – | caused the formation of lipid II domains in liposomes | – |

Reference: article PMC11222147, “Host defence peptide plectasin targets bacterial cell wall precursor lipid II by a calcium-sensitive supramolecular mechanism” (Nature Microbiology, 2024)
